In patent US10239831B2, “Method for producing bis(3-aminophenyl)disulfides and 3-aminothiols” (BAYER CROPSCIENCE AG, priority 2012, dated 2019):

Experiment: log P determination
Format: physicochemical
Details: for chromatographic logP: HCOOH (acidic); for logP: neutral

Compound | chromatographic logP | logP
O=[N+]([O-])c1cc(SSc2cc([N+](=O)[O-])c(Cl)cc2Cl)c(Cl)cc1Cl [Example 5, 1,1′-Disulphanediylbis(2,4-dichloro-5-nitrobenzene)] | 5.69 | 5.64
Nc1cc(SSc2cc(N)c(Cl)cc2Cl)c(Cl)cc1Cl [Example 14, 3,3′-Disulphanediylbis(4,6-dichloroaniline)] | 5.14 | 4.95
